Experimental data from patent US9631196B2, “Genetic manipulation and expression systems for Pucciniomycotina and Ustilaginomycotina subphyla” (priority 2011, dated 2017).
Where two headings read alike, the source gives them in different places.

Tests used:
[1] = test system: U. maydis L8 and SG200; assay type: cell-based, Ustilago maydis; conditions: for cyp1Δ (%) gene knockout frequency / prf1 Δ (%) gene knockout frequency: co-culture 2 days
Source text: (§1) cyp1 (um11812) and ptf1 (um02713) genes were chosen for the comparison of gene-targeting frequency, which can be monitored by the loss of ustilagic acids (UA) production and the loss of Fuz^+ colonies, respectively. Gene deletion constructs, pKOcyp1 and pKOprf1, were made by one-step ligation of four fragments. pKOcyp1 is composed of the 2.0-kb HindIII-PacI fragment containing the Pgpd::hpt cassette, the 8.7 kb NcoI-KpnI fragment from pEX2tk, the 1405 bp NcoI-HindIII and the 1076 bp PacI-KpnI PCR product derived from the upstream and downstream regions of the cyp1 ORF. The oligo pairs Cyp1L-Nf/Cyp1L-Hr (SEQ ID NO:29/SEQ ID NO:30) and Cyp1R-Pf/Cyp1R-Kr (SEQ ID NO:31/SEQ ID NO:32) were used for the amplification of upstream and downstream region, respectively. pKOprf1 was made similarly except the PCR product of oligo pairs Prf1L-Nf/Prf1L-Hr (SEQ ID NO:33/SEQ ID NO:34) and Prf1R-Pf/Prf1R-Kr (SEQ ID NO:35/SEQ ID NO:36) were used as the upstream and downstream homology region, respectively. Correct strains were identified by colony PCR using Taq DNA polymerase based on the size of the expected constructs using oligos LB/Cyp1L-Nf (SEQ ID NO:37/SEQ ID NO:29) and LB/Prf1L-Nf (SEQ ID NO:37/SEQ ID NO:33) for cyp1Δ and prf1Δ respectively. The same construction and identification techniques were applied to generate other gene deletion mutants in this study.
Similar results were obtained when knockout was performed via the ATMT transformation (Table 9).

[2] = test system: U maydis spheroplasts; assay type: cell-based, Ustilago maydis
Source text: as §1
PEG-mediated transformation of U maydis spheroplasts were done as described previously (Kämper, 2004). Briefly, the 4.5 kb cyp1 and prf1 gene deletion cassettes were amplified from pKOcyp1 and pKOprf1 using the Expand Long System (Roche Diagnosis, USA) and oligos Cyp1L-Nf/Cyp1R-Kr (SEQ ID NO:29/SEQ ID NO:32) and Prf1L-Nf/Prf1R-Kr (SEQ ID NO:33/SEQ ID NO:36), respectively. The PCR products were gel purified (Qiagen, Germany) and used for transformation. […]

[3] = NU7026 1 μM in top and bottom regeneration media, 3 days, out of 288 transformants

O=c1cc(N2CCOCC2)oc2c1ccc1ccccc12 [NU7026, 2-(morpholin-4-yl)-benzo[h]chomen-4-one; 2-(4-morpholinyl)-4H-naphthol[1,2-b]pyran-4-one]
cyp1Δ (%) gene knockout frequency ([1]; NU7026 0.1 μM): 8.3% | prf1 Δ (%) gene knockout frequency ([1]; NU7026 0.1 μM): 11.4% | cyp1Δ (%) gene knockout frequency ([1]; NU7026 1 μM): 18.8% | prf1 Δ (%) gene knockout frequency ([1]; NU7026 1 μM): 25.1% | cyp1Δ (%) gene knockout frequency ([1]; NU7026 5 μM): 10.4% | prf1 Δ (%) gene knockout frequency ([1]; NU7026 5 μM): 12.7% | cyp1Δ (%) gene knockout frequency ([1]; NU7026 10 μM): 8.3% | prf1 Δ (%) gene knockout frequency ([1]; NU7026 10 μM): 8.7% | cyp1Δ (%) gene knockout frequency ([1]; NU7026 50 μM): 7.4% | prf1 Δ (%) gene knockout frequency ([1]; NU7026 50 μM): 8.5% | total number of transformants obtained in 5 transformation plates ([1]; cyp1Δ, NU7026 0.1 μM): 601 | total number of transformants obtained in 5 transformation plates ([1]; cyp1Δ, NU7026 1 μM): 496 | total number of transformants obtained in 5 transformation plates ([1]; cyp1Δ, NU7026 5 μM): 413 | total number of transformants obtained in 5 transformation plates ([1]; cyp1Δ, NU7026 10 μM): 96 | total number of transformants obtained in 5 transformation plates ([1]; cyp1Δ, NU7026 50 μM): 68 | total number of transformants obtained in 5 transformation plates ([1]; prf1Δ, NU7026 0.1 μM): 642 | total number of transformants obtained in 5 transformation plates ([1]; prf1Δ, NU7026 1 μM): 554 | total number of transformants obtained in 5 transformation plates ([1]; prf1Δ, NU7026 5 μM): 361 | total number of transformants obtained in 5 transformation plates ([1]; prf1Δ, NU7026 10 μM): 172 | total number of transformants obtained in 5 transformation plates ([1]; prf1Δ, NU7026 50 μM): 59 | cyp1Δ gene knockout frequency [2, 3]: 16.67% | prf1Δ gene knockout frequency [2, 3]: 26.39% | increase of gene knockout frequency ([2]; both cyp1 and prf1, NU7026 1 μM vs control): about 3 folds
